Source: ChEMBL document CHEMBL1135305, “Enantiospecific, selective cyclooxygenase-2 inhibitors” (Bioorg Med Chem Lett, 2002)

What was measured:
[1] = target: T1, Prostaglandin G/H synthase 2 (Homo sapiens, UniProt P35354); experiment: Inhibitory concentration against human prostaglandin G/H synthase 2
T1 sequence (P35354 whole entry): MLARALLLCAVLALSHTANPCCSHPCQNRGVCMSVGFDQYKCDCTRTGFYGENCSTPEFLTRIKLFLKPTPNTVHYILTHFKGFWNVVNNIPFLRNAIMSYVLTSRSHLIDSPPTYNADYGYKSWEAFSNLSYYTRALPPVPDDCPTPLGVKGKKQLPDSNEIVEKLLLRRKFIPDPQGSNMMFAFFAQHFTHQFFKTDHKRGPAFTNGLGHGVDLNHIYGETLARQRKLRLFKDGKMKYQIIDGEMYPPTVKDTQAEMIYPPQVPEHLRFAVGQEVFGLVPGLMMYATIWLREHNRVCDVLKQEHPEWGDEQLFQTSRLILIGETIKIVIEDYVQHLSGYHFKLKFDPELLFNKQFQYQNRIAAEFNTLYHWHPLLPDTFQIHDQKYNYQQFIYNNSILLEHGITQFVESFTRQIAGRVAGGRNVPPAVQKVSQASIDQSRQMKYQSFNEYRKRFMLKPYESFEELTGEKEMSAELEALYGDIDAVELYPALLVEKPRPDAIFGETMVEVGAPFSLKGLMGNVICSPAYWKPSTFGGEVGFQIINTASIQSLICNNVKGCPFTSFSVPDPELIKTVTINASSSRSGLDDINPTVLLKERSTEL

[2] = target: T2, Prostaglandin G/H synthase 1 (Ovis aries, UniProt P05979)
T2 sequence (P05979 whole entry): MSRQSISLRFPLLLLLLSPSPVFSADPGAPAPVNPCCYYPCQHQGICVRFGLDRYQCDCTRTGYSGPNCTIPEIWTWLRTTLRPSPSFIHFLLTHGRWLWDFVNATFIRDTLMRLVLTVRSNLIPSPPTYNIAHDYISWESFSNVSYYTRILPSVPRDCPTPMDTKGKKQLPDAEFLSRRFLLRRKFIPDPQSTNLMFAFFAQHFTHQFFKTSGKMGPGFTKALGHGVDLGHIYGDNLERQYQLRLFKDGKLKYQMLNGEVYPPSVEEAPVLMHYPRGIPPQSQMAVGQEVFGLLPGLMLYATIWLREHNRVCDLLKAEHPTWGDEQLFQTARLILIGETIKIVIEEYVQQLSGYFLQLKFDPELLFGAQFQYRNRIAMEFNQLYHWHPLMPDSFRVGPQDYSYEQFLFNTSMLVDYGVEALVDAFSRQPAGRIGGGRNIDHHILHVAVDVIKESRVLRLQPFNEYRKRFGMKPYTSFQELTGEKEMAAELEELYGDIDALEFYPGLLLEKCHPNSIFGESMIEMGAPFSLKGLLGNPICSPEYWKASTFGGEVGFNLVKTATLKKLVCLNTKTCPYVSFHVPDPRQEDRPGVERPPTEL
Description: Inhibitory concentration against prostaglandin G/H synthase 1

[3] = target: Prostaglandin G/H synthase 2 (Mus musculus, UniProt Q05769, F343L); experiment: Inhibitory concentration against F357L mutant murine Prostaglandin G/H synthase 2
Prostaglandin G/H synthase 2 (Mus musculus, UniProt Q05769, F343L), sequence (Q05769 18-604 F343L limits assumed): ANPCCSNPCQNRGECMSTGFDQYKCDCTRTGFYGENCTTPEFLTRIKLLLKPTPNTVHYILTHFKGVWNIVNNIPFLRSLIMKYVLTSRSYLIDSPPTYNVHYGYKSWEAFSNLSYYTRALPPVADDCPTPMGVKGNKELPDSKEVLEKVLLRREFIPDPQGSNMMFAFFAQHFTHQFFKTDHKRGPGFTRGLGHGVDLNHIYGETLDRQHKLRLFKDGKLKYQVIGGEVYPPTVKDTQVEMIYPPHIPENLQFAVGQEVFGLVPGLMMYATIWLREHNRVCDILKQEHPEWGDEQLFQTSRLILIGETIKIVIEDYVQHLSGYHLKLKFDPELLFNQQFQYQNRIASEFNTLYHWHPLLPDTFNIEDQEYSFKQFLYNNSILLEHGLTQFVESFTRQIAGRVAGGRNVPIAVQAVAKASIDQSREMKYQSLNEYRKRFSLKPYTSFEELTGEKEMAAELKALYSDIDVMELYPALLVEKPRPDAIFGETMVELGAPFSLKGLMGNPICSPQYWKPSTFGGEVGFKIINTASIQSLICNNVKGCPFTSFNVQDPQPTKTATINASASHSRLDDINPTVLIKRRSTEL

[4] = target: Prostaglandin G/H synthase 2 (Mus musculus, UniProt Q05769, H122N); experiment: Inhibitory concentration against H122N mutant murine Prostaglandin G/H synthase 2
[5] = target: Prostaglandin G/H synthase 2 (Mus musculus, UniProt Q05769, I92L); experiment: Inhibitory concentration against I92L mutant murine Prostaglandin G/H synthase 2
[6] = target: Prostaglandin G/H synthase 2 (Mus musculus, UniProt Q05769, L489F); experiment: Inhibitory concentration against L503F mutant murine Prostaglandin G/H synthase 2
Prostaglandin G/H synthase 2 (Mus musculus, UniProt Q05769, L489F), sequence (Q05769 18-604 L489F limits assumed): as the sequence (Q05769 18-604 F343L limits assumed) above, with L326F, L472F counted along it

[7] = target: Prostaglandin G/H synthase 2 (Mus musculus, UniProt Q05769, R106A); experiment: Inhibitory concentration against R120A mutant murine Prostaglandin G/H synthase 2
Prostaglandin G/H synthase 2 (Mus musculus, UniProt Q05769, R106A), sequence (Q05769 18-604 R106A limits assumed): as the sequence (Q05769 18-604 F343L limits assumed) above, with R89A, L326F counted along it

[8] = target: Prostaglandin G/H synthase 2 (Mus musculus, UniProt Q05769, R106Q); experiment: Inhibitory concentration against R120Q mutant murine Prostaglandin G/H synthase 2
Prostaglandin G/H synthase 2 (Mus musculus, UniProt Q05769, R106Q), sequence (Q05769 18-604 R106Q limits assumed): as the sequence (Q05769 18-604 F343L limits assumed) above, with R89Q, L326F counted along it

[9] = target: Prostaglandin G/H synthase 2 (Mus musculus, UniProt Q05769, S105V); experiment: Inhibitory concentration against S119V mutant murine Prostaglandin G/H synthase 2
Prostaglandin G/H synthase 2 (Mus musculus, UniProt Q05769, S105V), sequence (Q05769 18-604 S105V limits assumed): as the sequence (Q05769 18-604 F343L limits assumed) above, with S88V, L326F counted along it

[10] = target: Prostaglandin G/H synthase 2 (Mus musculus, UniProt Q05769, S516A); experiment: Inhibitory concentration against S530A mutant murine Prostaglandin G/H synthase 2
Prostaglandin G/H synthase 2 (Mus musculus, UniProt Q05769, S516A), sequence (Q05769 18-604 S516A limits assumed): as the sequence (Q05769 18-604 F343L limits assumed) above, with L326F, S499A counted along it

[11] = target: T3, Prostaglandin G/H synthase 2 (Mus musculus, UniProt Q05769); experiment: Inhibitory concentration against V5231, mutant murine Prostaglandin G/H synthase 2
[12] = target: T3, Prostaglandin G/H synthase 2; experiment: Inhibitory concentration against VRV, mutant murine Prostaglandin G/H synthase 2
[13] = target: Prostaglandin G/H synthase 2 (Mus musculus, UniProt Q05769, Y101L); experiment: Inhibitory concentration against Y115L mutant murine Prostaglandin G/H synthase 2
Prostaglandin G/H synthase 2 (Mus musculus, UniProt Q05769, Y101L), sequence (Q05769 18-604 Y101L limits assumed): as the sequence (Q05769 18-604 F343L limits assumed) above, with Y84L, L326F counted along it

[14] = target: Prostaglandin G/H synthase 2 (Mus musculus, UniProt Q05769, S105V/Y101L); experiment: Inhibitory concentration against Y115L/S119V mutant murine Prostaglandin G/H synthase 2
Prostaglandin G/H synthase 2 (Mus musculus, UniProt Q05769, S105V/Y101L), sequence (Q05769 18-604 Y101L/S105V limits assumed): as the sequence (Q05769 18-604 F343L limits assumed) above, with Y84L, S88V, L326F counted along it

[15] = target: T4, Prostaglandin G/H synthase 2 (Mus musculus, UniProt Q05769); experiment: Inhibitory concentration against wild type murine Prostaglandin G/H synthase 2
T4 sequence (Q05769 whole entry): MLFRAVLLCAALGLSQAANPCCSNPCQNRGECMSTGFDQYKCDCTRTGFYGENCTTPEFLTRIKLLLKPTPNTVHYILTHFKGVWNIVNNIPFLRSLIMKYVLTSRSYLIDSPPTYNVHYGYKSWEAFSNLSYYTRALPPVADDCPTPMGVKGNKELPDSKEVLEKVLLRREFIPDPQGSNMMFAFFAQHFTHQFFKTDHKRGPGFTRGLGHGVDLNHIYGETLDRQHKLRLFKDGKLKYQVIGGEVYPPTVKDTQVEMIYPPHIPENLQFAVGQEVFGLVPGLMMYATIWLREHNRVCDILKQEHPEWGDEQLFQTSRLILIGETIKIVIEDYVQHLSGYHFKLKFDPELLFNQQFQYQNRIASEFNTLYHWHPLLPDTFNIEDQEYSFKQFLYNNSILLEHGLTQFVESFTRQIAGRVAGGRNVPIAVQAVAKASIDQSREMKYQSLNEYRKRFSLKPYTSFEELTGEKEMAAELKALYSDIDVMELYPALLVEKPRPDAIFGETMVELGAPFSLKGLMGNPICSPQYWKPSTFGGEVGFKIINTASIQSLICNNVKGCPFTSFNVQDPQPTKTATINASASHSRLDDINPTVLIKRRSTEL

[16] = target: T3, Prostaglandin G/H synthase 2; experiment: Inhibitory concentration against V891 mutant murine Prostaglandin G/H synthase 2
[17] = target: Prostaglandin G/H synthase 2 (Mus musculus, UniProt Q05769, E510L); experiment: Inhibitory concentration against E524L mutant murine Prostaglandin G/H synthase 2
Prostaglandin G/H synthase 2 (Mus musculus, UniProt Q05769, E510L), sequence (Q05769 18-604 E510L limits assumed): as the sequence (Q05769 18-604 F343L limits assumed) above, with L326F, E493L counted along it

[18] = target: T3, Prostaglandin G/H synthase 2; experiment: Inhibitory concentration against l503F mutant murine Prostaglandin G/H synthase 2

Row | IC50 [1] | IC50 [2] | Structure (SMILES) | also measured
1 | 1.8 µM | > 80 µM | COc1ccc2c(c1)c(CC(=O)NN1CCC[C@H]1CO)c(C)n2C(=O)c1ccc(Cl)cc1 | 
2 | 1.7 µM | > 80 µM | COc1ccc2c(c1)c(CC(=O)NN1CCC[C@@H]1CO)c(C)n2C(=O)c1ccc(Cl)cc1 | 
3 | 0.24 µM | > 60 µM | COC[C@H](C)NC(=O)Cc1c(C)n(C(=O)c2ccc(Cl)cc2)c2ccc(OC)cc12 | 
4 | 0.14 µM | 6.8 µM | COC[C@@H](C)NC(=O)Cc1c(C)n(C(=O)c2ccc(Cl)cc2)c2ccc(OC)cc12 | 
5 | 0.22 µM | > 50 µM | COc1ccc2c(c1)c(CC(=O)N[C@@H](CO)Cc1ccccc1)c(C)n2C(=O)c1ccc(Cl)cc1 | 
6 | 0.11 µM | 0.48 µM | CCC(C)[C@@H](CO)NC(=O)Cc1c(C)n(C(=O)c2ccc(Cl)cc2)c2ccc(OC)cc12 (stereo not given in full) | 
7 | 0.28 µM | 86 µM | COc1ccc2c(c1)c(CC(=O)NCCCCO)c(C)n2C(=O)c1ccc(Cl)cc1 | 
8 | 0.29 µM | > 83 µM | COc1ccc2c(c1)c(CC(=O)NCCCCCO)c(C)n2C(=O)c1ccc(Cl)cc1 | 
9 | 0.17 µM | 33 µM | COc1ccc2c(c1)c(CC(=O)N[C@H](C)CO)c(C)n2C(=O)c1ccc(Cl)cc1 | IC50 [3]: 0.25 µM; IC50 [4]: 0.69 µM; IC50 [5]: 0.2 µM; IC50 [6]: 0.3 µM; IC50 [7]: 0.05 µM; IC50 [8]: 0.09 µM; IC50 [9]: 0.24 µM; IC50 [10]: 0.57 µM; IC50 [11]: 0.69 µM; IC50 [12]: 0.34 µM; IC50 [13]: 0.325 µM; IC50 [14]: 0.29 µM; IC50 [15]: 0.54 µM; IC50 [16]: 0.25 µM; IC50 [17]: 0.56 µM
10 | 0.1 µM | 59 µM | CC[C@H](CO)NC(=O)Cc1c(C)n(C(=O)c2ccc(Cl)cc2)c2ccc(OC)cc12 | 
11 | 0.37 µM | 0.4 µM | COc1ccc2c(c1)c(CC(=O)N[C@H](CO)C(C)C)c(C)n2C(=O)c1ccc(Cl)cc1 | 
12 | 0.13 µM | 0.18 µM | CC[C@@H](C)NC(=O)Cc1c(C)n(C(=O)c2ccc(Cl)cc2)c2ccc(OC)cc12 | 
13 | 0.11 µM | 4.7 µM | CC[C@H](C)NC(=O)Cc1c(C)n(C(=O)c2ccc(Cl)cc2)c2ccc(OC)cc12 | 
14 | 0.32 µM | 32 µM | COc1ccc2c(c1)c(CC(=O)NC[C@H](C)O)c(C)n2C(=O)c1ccc(Cl)cc1 | 
15 | 0.22 µM | 64 µM | COc1ccc2c(c1)c(CC(=O)NCCCO)c(C)n2C(=O)c1ccc(Cl)cc1 | 
16 | 0.44 µM | 47 µM | COc1ccc2c(c1)c(CC(=O)N[C@@H](CO)c1ccccc1)c(C)n2C(=O)c1ccc(Cl)cc1 | 
17 | 0.085 µM | < 1.3 µM | COc1ccc2c(c1)c(CC(=O)N[C@H](CO)c1ccccc1)c(C)n2C(=O)c1ccc(Cl)cc1 | 
18 | 0.28 µM | 0.35 µM | CC[C@@H](CO)NC(=O)Cc1c(C)n(C(=O)c2ccc(Cl)cc2)c2ccc(OC)cc12 | 
19 | 0.17 µM | < 3.9 µM | COc1ccc2c(c1)c(CC(=O)N[C@H](CO)CC(C)C)c(C)n2C(=O)c1ccc(Cl)cc1 | 
20 | 1 µM | 2.3 µM | COc1ccc2c(c1)c(CC(=O)N[C@H](CO)CCSC)c(C)n2C(=O)c1ccc(Cl)cc1 | 
21 | 0.21 µM | > 63 µM | COc1ccc2c(c1)c(CC(=O)NCCCCCCO)c(C)n2C(=O)c1ccc(Cl)cc1 | 
22 | 0.33 µM | 52 µM | COc1ccc2c(c1)c(CC(=O)NC[C@@H](C)O)c(C)n2C(=O)c1ccc(Cl)cc1 | 
23 | 0.27 µM | 0.59 µM | COc1ccc2c(c1)c(CC(=O)N[C@@H](C)CO)c(C)n2C(=O)c1ccc(Cl)cc1 | IC50 [3]: 0.25 µM; IC50 [4]: 0.3 µM; IC50 [5]: 0.2 µM; IC50 [7]: 0.06 µM; IC50 [8]: 0.075 µM; IC50 [9]: 0.2 µM; IC50 [10]: 0.15 µM; IC50 [11]: 0.22 µM; IC50 [12]: 0.11 µM; IC50 [13]: 0.39 µM; IC50 [14]: 0.21 µM; IC50 [18]: 0.16 µM; IC50 [15]: 0.17 µM; IC50 [16]: 0.085 µM; IC50 [17]: 0.22 µM
24 | 0.5 µM | > 63 µM | COc1ccc2c(c1)c(CC(=O)N[C@@H](CO)CC(C)C)c(C)n2C(=O)c1ccc(Cl)cc1 | 
25 | 0.11 µM | > 63 µM | COc1ccc2c(c1)c(CC(=O)N[C@@H](CO)C(C)C)c(C)n2C(=O)c1ccc(Cl)cc1 | 
26 | 0.085 µM | < 3.9 µM | COc1ccc2c(c1)c(CC(=O)N[C@H](CO)Cc1ccccc1)c(C)n2C(=O)c1ccc(Cl)cc1 | 
27 | 0.25 µM | 51 µM | COc1ccc2c(c1)c(CC(=O)N[C@@H](CO)CCSC)c(C)n2C(=O)c1ccc(Cl)cc1 | 
28 | 0.19 µM | 0.8 µM | COc1ccc2c(c1)c(CC(=O)NC(C)(C)CO)c(C)n2C(=O)c1ccc(Cl)cc1 | 

Row | Structure (SMILES) | IC50 [1] | IC50 [2] | also measured
29 | COc1ccc2c(c1)c(CC(=O)NC[C@H](O)c1ccccc1)c(C)n2C(=O)c1ccc(Cl)cc1 | 0.21 µM | > 63 µM | 
30 | COc1ccc2c(c1)c(CC(=O)NC[C@@H](O)c1ccccc1)c(C)n2C(=O)c1ccc(Cl)cc1 | 0.047 µM | 56 µM | 
